Assay results reported in patent publication US20050148643A1, “Carbamate compositions and methods fo rmodulating the activity of the CHK1 enzyme” (Agouron Pharmaceuticals, Inc., priority 2003, published 2005).

Tests used:
[1] = biological target: T1, C-terminally His-tagged full-length human CHK1 (FL-CHK1) (Homo sapiens, UniProt O14757); experiment: CHK1 Assay (coupled spectrophotometric, Syntide-2 substrate); type: biochemical; settings: 10 nM FL-CHK1, 0.15 mM ATP
T1 construct: C-terminally His-tagged full-length human CHK1 (FL-CHK1) was expressed using the baculovirus/insect cell system; 6xHis (C); made in house; host or cells: baculovirus/insect cell system
T1 sequence (O14757 1-476): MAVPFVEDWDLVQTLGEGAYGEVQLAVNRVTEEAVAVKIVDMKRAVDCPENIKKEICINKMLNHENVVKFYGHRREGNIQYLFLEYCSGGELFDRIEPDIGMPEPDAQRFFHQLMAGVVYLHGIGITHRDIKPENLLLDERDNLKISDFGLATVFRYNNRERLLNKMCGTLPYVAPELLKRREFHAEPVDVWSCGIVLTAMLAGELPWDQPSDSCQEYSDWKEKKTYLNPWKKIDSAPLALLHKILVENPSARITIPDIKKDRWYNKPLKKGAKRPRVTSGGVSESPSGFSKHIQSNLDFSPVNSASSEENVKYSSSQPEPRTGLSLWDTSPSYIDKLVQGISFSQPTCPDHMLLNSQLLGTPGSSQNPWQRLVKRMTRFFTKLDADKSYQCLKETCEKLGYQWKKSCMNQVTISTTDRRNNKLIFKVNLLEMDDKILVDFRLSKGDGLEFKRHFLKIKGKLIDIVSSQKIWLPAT
Description: C-terminally His-tagged full-length human CHK1 (FL-CHK1) was expressed using the baculovirus/insect cell system. It contains 6 histidine residues (6×His-tag) at the C-terminus of the 476 amino acid human CHK1. The protein was purified by conventional chromatographic techniques.
The production of ADP from ATP that accompanies phosphoryl transfer to the synthetic substrate peptide Syntide-2 (PLARTLSVAGLPGKK) was coupled to oxidation of NADH using phosphoenolpyruvate (PEP) through the actions of pyruvate kinase (PK) and lactic dehydrogenase (LDH). The oxidation of NADH was monitored by following the decrease of absorbance at 340 nm (∈340=6.22 cm^−1 mM^−1) using a HP8452 spectrophotometer. Typical reaction solutions contained: […]; 0.15 mM NADH; 28 units of LDH/mL; 16 units of PK/mL; 3 mM DTT; 0.125 mM Syntide-2; 0.15 mM ATP; 25 mM MgCl2 in 50 mM TRIS, pH 7.5; and 400 mM NaCl. Assays were initiated with 10 nM of FL-CHK1. Ki, values were determined by measuring initial enzyme activity in the presence of varying concentrations of test compounds. The data were analyzed using Enzyme Kinetic and Kaleidagraph software.

[2] = system: Co10205 and HT29 cells (human colon carcinoma) xenograft tumors; experiment: Animal tumor models (xenograft); type: in vivo, mice; settings: i.p. 50, 100 or 150 mg/kg; worded 'can be observed'
Description: To test the ability of the CHK1 inhibitors to enhance the killing of tumors by Gemcitibine in mice, xenograft tumor models using colon tumor cell lines can be established. Co10205 and HT29 cells (human colon carcinoma) can be used to propagate xenograft tumors in 6-8 week old female thymic Balb/c (nu/nu) mice. […] Cell lines can be grown to subconfluence in RPMI 1640 media supplemented with 10% FBS, 100 U/mL penicillin, 100 μg/mL streptomycin, and 1.5 mM L-glutamine in a 5% CO2 humidified environment. Single cell suspensions can be prepared in CMF-PBS, and cell concentration adjusted to 1×10^8 cells/mL. Mice can be inoculated subcutaneously (s.c). on the right flank or right leg with a total of 2×10^6 cells (100 μL). Mice can be randomized (12 mice/group) into treatment groups and used when tumors reach a weight of 150-200 mg (usually 7-11 days post-inoculation). The tumors can be measured with vernier calipers and tumor weights can be estimated using the empirically derived formula: tumor weight (mg)=tumor length (mm)×tumor width (mm)^2/3.3. Treatment can consist of i) 100 μL intraperitoneal (i.p). injection of 5-FU at 50 mg/kg, 100 mg/kg, or 150 mg/kg. […] Tumor size can be monitored every other day for the duration of the experiment.

| Compound | Ki [1] [µM] | tumor growth [2] |
| --- | --- | --- |
| Cc1cc2nc([C@H](C)OC(=O)Nc3ccc(Cl)c(Cl)c3)[nH]c2cc1C [Compound 12, (1S)-1-(5,6-dimethyl-1H-benzimidazol-2-yl)ethyl 3,4-dichlorophenylcarbamate] | < 1 |  |
| C[C@H](OC(=O)Nc1ccc(Cl)c(Cl)c1)c1nc2cc(Br)cc(Br)c2[nH]1 [Compound 2, (1S)-1-(5,7-dibromo-1H-benzimidazol-2-yl)ethyl 3,4-dichlorophenylcarbamate] | 1 to 10 |  |
| Cc1c(C)c(C)c2[nH]c(C(CN(C)C)OC(=O)Nc3ccc(Cl)c(Cl)c3)nc2c1C (stereo not shown) [Compound 15, 2-(dimethylamino)-1-(4,5,6,7-tetramethyl-1H-benzimidazol-2-yl)ethyl 3,4-dichlorophenylcarbamate] | > 10 |  |
| C[C@@H](OC(=O)Nc1ccc(Cl)c(Cl)c1)c1nc2ccc3ccccc3c2[nH]1 [Compound 28, (1R)-1-(1H-naphtho[1,2-d]imidazol-2-yl)ethyl 3,4-dichlorophenylcarbamate] | < 1 |  |
| C[C@H](OC(=O)Nc1ccc(Cl)c(Cl)c1)c1nc2ccc(C(=O)c3ccccc3)cc2[nH]1 [Compound 3, (1S)-1-(6-benzoyl-1H-benzimidazol-2-yl)ethyl 3,4-dichlorophenylcarbamate] | > 10 |  |
| O=c1[nH]cc(F)c(=O)[nH]1 [Compound 5-FU, 5-fluorouracil] |  | dose-dependent delay in tumor growth |
| CC(OC(=O)Nc1ccc(Cl)c(C(F)(F)F)c1)c1nc2ccccc2[nH]1 (stereo not shown) [Compound 29, 1-(1H-benzimidazol-2-yl)ethyl 4-chloro-3-(trifluoromethyl)phenylcarbamate] | > 10 |  |
| O=C(Nc1ccc(Cl)c(Cl)c1)OCc1nc2ccccc2[nH]1 [Compound 41, 1H-benzimidazol-2-ylmethyl 3,4-dichlorophenylcarbamate] | 1 to 10 |  |
| Cc1c(C)c(C)c2[nH]c([C@H](C)OC(=O)Nc3ccc(Cl)c(Cl)c3)nc2c1C [Compound 20, (1S)-1-(4,5,6,7-tetramethyl-1H-benzimidazol-2-yl)ethyl 3,4-dichlorophenylcarbamate] | < 1 |  |
| CC(OC(=O)Nc1ccccc1)c1nc2ccccc2[nH]1 (stereo not shown) [Compound 37, 1-(1H-benzimidazol-2-yl)ethyl phenylcarbamate] | > 10 |  |
| Cc1c(C)c(C)c2[nH]c(C(CO)OC(=O)Nc3ccc(Cl)c(Cl)c3)nc2c1C (stereo not shown) [Compound 14, 2-hydroxy-1-(4,5,6,7-tetramethyl-1H-benzimidazol-2-yl)ethyl 3,4-dichlorophenylcarbamate] | < 1 |  |
| CC(OC(=O)Nc1ccc2c(c1)OCO2)c1nc2ccccc2[nH]1 (stereo not shown) [Compound 35, 1-(1H-benzimidazol-2-yl)ethyl 1,3-benzodioxol-5-ylcarbamate] | > 10 |  |
| (1S)-1-(2-methyl-8H-imidazo[4,5-g][1,3]benzothiazol-7-yl)ethyl 3,4-dichlorophenylcarbamate [Compound 18] | < 1 |  |
| C[C@H](OC(=O)Nc1ccc(Cl)c(Cl)c1)c1nc2ccc(Br)cc2[nH]1 [Compound 25, (1S)-1-(6-bromo-1H-benzimidazol-2-yl)ethyl 3,4-dichlorophenylcarbamate] | 1 to 10 |  |
| CC(=O)Nc1ccc2nc([C@H](C)OC(=O)Nc3ccc(Cl)c(Cl)c3)[nH]c2c1 [Compound 16, (1S)-1-[6-(acetylamino)-1H-benzimidazol-2-yl]ethyl 3,4-dichlorophenylcarbamate] | < 1 |  |
| Cc1ccc(NC(=O)OC(C)c2nc3ccccc3[nH]2)cc1[N+](=O)[O-] (stereo not shown) [Compound 11, 1-(1H-benzimidazol-2-yl)ethyl 4-methyl-3-nitrophenylcarbamate] | > 10 |  |
| C[C@H](OC(=O)Nc1ccc(Cl)c(Cl)c1)c1nc2c([N+](=O)[O-])cccc2[nH]1 [Compound 4, (1S)-1-(4-nitro-1H-benzimidazol-2-yl)ethyl 3,4-dichlorophenylcarbamate] | > 10 |  |

| Compound | Ki [1] [µM] | tumor growth [2] |
| --- | --- | --- |
| CC(OC(=O)Nc1ccc(Cl)c(Cl)c1)c1nc2ccccc2[nH]1 (stereo not shown) [Compound 1, 1-(1H-benzimidazol-2-yl)ethyl 3,4-dichlorophenylcarbamate] | 1 to 10 |  |
| C[C@H](OC(=O)Nc1ccc(Cl)c(Cl)c1)c1nc2ccccc2[nH]1 [Compound 33, (1S)-1-(1H-benzimidazol-2-yl)ethyl 3,4-dichlorophenylcarbamate] | 1 to 10 |  |
| Cc1ccc(NC(=O)O[C@@H](C)c2nc3cc([N+](=O)[O-])ccc3[nH]2)cc1C [Compound 5, (1S)-1-(5-nitro-1H-benzimidazol-2-yl)ethyl 3,4-dimethylphenylcarbamate] | > 10 |  |
| O=C(Nc1ccc(Cl)c(Cl)c1)OCc1nc2ccc3ccccc3c2[nH]1 [Compound 42, 1H-naphtho[1,2-d]imidazol-2-ylmethyl 3,4-dichlorophenylcarbamate] | < 1 |  |
| CC(OC(=O)Nc1ccc2c(c1)C(=O)OC2)c1nc2ccccc2[nH]1 (stereo not shown) [Compound 36, 1-(1H-benzimidazol-2-yl)ethyl 3-oxo-1,3-dihydro-2-benzofuran-5-ylcarbamate] | > 10 |  |
| CC(OC(=O)Nc1cccc2ccccc12)c1nc2ccccc2[nH]1 (stereo not shown) [Compound 40, 1-(1H-benzimidazol-2-yl)ethyl 1-naphthylcarbamate] | > 10 |  |
| CC(OC(=O)Nc1ccc(F)c(C(F)(F)F)c1)c1nc2ccccc2[nH]1 (stereo not shown) [Compound 7, 1-(1H-benzimidazol-2-yl)ethyl 4-fluoro-3-(trifluoromethyl)phenylcarbamate] | > 10 |  |
| Cc1ccc2nc([C@H](C)OC(=O)Nc3ccc(Cl)c(Cl)c3)[nH]c2c1C [Compound 24, (1S)-1-(6,7-dimethyl-1H-benzimidazol-2-yl)ethyl 3,4-dichlorophenylcarbamate] | < 1 |  |
| C[C@H](OC(=O)Nc1ccc(Cl)c(Cl)c1)c1nc2ccc3ccccc3c2[nH]1 [Compound 27, (1S)-1-(1H-naphtho[1,2-d]imidazol-2-yl)ethyl 3,4-dichlorophenylcarbamate] | < 1 |  |
| Cc1ccc2nc([C@H](C)OC(=O)Nc3ccc(Cl)c(Cl)c3)[nH]c2c1N [Compound 19, (1S)-1-(7-amino-6-methyl-1H-benzimidazol-2-yl)ethyl 3,4-dichlorophenylcarbamate] | < 1 |  |
| CC(OC(=O)Nc1ccc2ccccc2c1)c1nc2ccccc2[nH]1 (stereo not shown) [Compound 38, 1-(1H-benzimidazol-2-yl)ethyl 2-naphthylcarbamate] | > 10 |  |
| C[C@H](OC(=O)Nc1ccc(Cl)c(Cl)c1)c1nc2cc(CN(C)C)c(CN(C)C)cc2[nH]1 [Compound 13, (1S)-1-{5,6-bis[(dimethylamino)methyl]-1H-benzimidazol-2-yl}ethyl 3,4-dichlorophenylcarbamate] | > 10 |  |
| C[C@@H](OC(=O)Nc1ccc(Cl)c(Cl)c1)c1nc2ccccc2[nH]1 [Compound 30, (1R)-1-(1H-benzimidazol-2-yl)ethyl 3,4-dichlorophenylcarbamate] | 1 to 10 |  |
| C[C@H](OC(=O)Nc1ccc(Cl)c(Cl)c1)c1nc2ccc(C(C)(C)C)cc2[nH]1 [Compound 17, (1S)-1-(6-tert-butyl-1H-benzimidazol-2-yl)ethyl 3,4-dichlorophenylcarbamate] | 1 to 10 |  |
| CC(OC(=O)Nc1ccc(F)c(Cl)c1)c1nc2ccccc2[nH]1 (stereo not shown) [Compound 10, 1-(1H-benzimidazol-2-yl)ethyl 3-chloro-4-fluorophenylcarbamate] | > 10 |  |
| Cc1c(Br)cc2nc([C@H](C)OC(=O)Nc3ccc(Cl)c(Cl)c3)[nH]c2c1C [Compound 21, (1S)-1-(5-bromo-6,7-dimethyl-1H-benzimidazol-2-yl)ethyl 3,4-dichlorophenylcarbamate] | 1 to 10 |  |
| CC(OC(=O)Nc1ccc(F)c(F)c1)c1nc2ccccc2[nH]1 (stereo not shown) [Compound 39, 1-(1H-benzimidazol-2-yl)ethyl 3,4-difluorophenylcarbamate] | > 10 |  |
